For 14 compounds, TGI and GI50 results are on record in PubChem BioAssay (NCI).

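All cell lines were grown in 96-well plates and treated with compound for 48 hours. GI50 marks 50% less growth. At the TGI there is no net growth.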

Among the test systems are SNB-19 CNS; SK-MEL-2 melanoma; KM12 colon; SK-OV-3 ovarian; RPMI-8226 leukemia; UO-31 renal; NCI-H460 lung; T-47D breast; OVCAR-8 ovarian; NCI-H226 lung.
Common to all, as to experiment: NCI tumour cell line growth inhibition, 48 h

As for `OC1(c2ccc(Cl)cc2)c2ccc(CN3CCCC3)cc2C2=NCCN21` (configuration not stated), the TGI came out at 31.1 µM in the assay on SNB-19 CNS; 34.2 µM in the assay on SK-MEL-2 melanoma; 27.6 µM with KM12 colon; 27.3 µM in the assay on SK-OV-3 ovarian; 26 µM with RPMI-8226 leukemia; 27.5 µM in the assay on UO-31 renal. Moreover, the TGI was 29.1 µM in the assay on NCI-H460 lung, 38.5 µM with T-47D breast and 29.9 µM in the assay on OVCAR-8 ovarian.
On to `O=C(OCc1ccccc1)C(Cc1ccccc1)N(Cc1ccccc1)Cc1ccccc1` (configuration not stated), for which the TGI in the assay on SNB-19 CNS, in the assay with SK-MEL-2 melanoma, with KM12 colon, with SK-OV-3 ovarian, in the assay on RPMI-8226 leukemia and with UO-31 renal was over 100 µM throughout. In addition, the TGI in the assay on NCI-H460 lung and with OVCAR-8 ovarian was over 100 µM in each case.
On to `Clc1ccc(Cl)c(SCCCN2CCNCC2)c1`, for which the TGI turned out to be 34.4 µM in the assay on SNB-19 CNS; 86.1 µM in the assay with KM12 colon; 32 µM with SK-OV-3 ovarian; 48.6 µM with RPMI-8226 leukemia; 30.1 µM in the assay with UO-31 renal; 42.1 µM in the assay on NCI-H460 lung. Also, the TGI was 43.4 µM with NCI-H226 lung, 58.1 µM in the assay with T-47D breast and 46 µM in the assay with OVCAR-8 ovarian.
For `OCC(O)C(O)C(O)/C=N/Nc1nc(O)c(/C=C2\C=Nc3ccccc32)[nH]1` (configuration not stated), the TGI in the assay with SNB-19 CNS, with KM12 colon, in the assay on SK-OV-3 ovarian, with RPMI-8226 leukemia, with NCI-H460 lung and with NCI-H226 lung was over 100 µM throughout. Moreover, the TGI in the assay on T-47D breast and with OVCAR-8 ovarian was over 100 µM throughout.
In the case of `CCN1C(=O)N(CC)C2Nn3c(s/c(=C4\C(=O)N(C)c5ccccc54)c3=O)=NC21` (configuration not stated), the GI50 in the assay with KM12 colon was 2.91 µM; in the assay with RPMI-8226 leukemia it was 3.97 µM; with UO-31 renal it was 2.82 µM; in the assay with NCI-H460 lung it was 3.35 µM; in the assay with NCI-H226 lung, over 100 µM; with T-47D breast, 3.14 µM. Moreover, the GI50 with OVCAR-8 ovarian was 4.3 µM. The TGI in the assay on KM12 colon, in the assay on RPMI-8226 leukemia, in the assay on UO-31 renal, in the assay with NCI-H460 lung, in the assay with NCI-H226 lung and in the assay on T-47D breast was over 100 µM in each case. The compound also came in with a TGI in the assay with OVCAR-8 ovarian of over 100 µM.
For the compound `CC(C)CCn1nc(N)c2nc3ccccc3nc21`, the TGI with SNB-19 CNS, in the assay on SK-MEL-2 melanoma, with KM12 colon, in the assay on SK-OV-3 ovarian, with RPMI-8226 leukemia and in the assay with UO-31 renal was over 100 µM each time. For the same compound, the TGI with NCI-H460 lung, with NCI-H226 lung and in the assay with OVCAR-8 ovarian was over 100 µM each time.
As for `COc1ccc(/C=N/N2C(=O)c3c(N)c(C#N)c(-c4ccccc4)c(-c4ccccc4)c3C2=O)cc1`, the TGI in the assay with SNB-19 CNS, with SK-MEL-2 melanoma, in the assay on KM12 colon, with RPMI-8226 leukemia, with UO-31 renal and with NCI-H460 lung was over 100 µM throughout. The TGI in the assay on NCI-H226 lung, in the assay with T-47D breast and with OVCAR-8 ovarian was over 100 µM throughout.
For `COc1cc(CNc2nc3cc(C(F)(F)F)ccc3nc2-c2ccccc2)cc(OC)c1OC`, the TGI with SNB-19 CNS is over 100 µM; with KM12 colon, 53 µM; in the assay on RPMI-8226 leukemia it was over 100 µM; in the assay with UO-31 renal it was over 100 µM; in the assay on NCI-H460 lung, over 100 µM; in the assay on NCI-H226 lung, over 100 µM. Also, the TGI was 6.62 µM in the assay on T-47D breast and over 100 µM in the assay on OVCAR-8 ovarian.
Regarding `COc1ccccc1N1CCN(CCCNC(=O)c2cc(Cl)c(N)c(Cl)c2)CC1`, the TGI is over 100 µM with SNB-19 CNS; over 100 µM in the assay on KM12 colon; over 100 µM in the assay with SK-OV-3 ovarian; 54.5 µM in the assay with RPMI-8226 leukemia; 58.1 µM with UO-31 renal; over 100 µM with NCI-H460 lung. In addition, the figures for the TGI in the assay with NCI-H226 lung, with T-47D breast and in the assay on OVCAR-8 ovarian were 98 µM, over 100 µM and over 100 µM, respectively.
Consider `Cc1cn2c(C)csc2c1P(=O)(OC(C)C)OC(C)C`, for which the TGI with SNB-19 CNS, in the assay on SK-MEL-2 melanoma, in the assay on KM12 colon, in the assay on SK-OV-3 ovarian, in the assay with RPMI-8226 leukemia and in the assay on UO-31 renal was over 100 µM each time. In addition, the TGI in the assay on NCI-H460 lung and in the assay on OVCAR-8 ovarian was over 100 µM in each case.
Take `CSC(SC)=C1C(=O)N(c2ccccc2)N=C1C`: the TGI was 98.1 µM in the assay on SNB-19 CNS; 46.8 µM with SK-MEL-2 melanoma; over 100 µM in the assay on KM12 colon; 91.9 µM with SK-OV-3 ovarian; 82.4 µM in the assay with NCI-H460 lung; 87.1 µM in the assay with NCI-H226 lung. Besides, the TGI with OVCAR-8 ovarian was over 100 µM.
As to `COc1cc([C@@H]2c3cc4c(cc3[C@@H](c3c(O)cc(O)c5c3O[C@H](c3ccc(O)c(O)c3)[C@@H](O)C5)[C@H]3COC(=O)[C@H]23)OCO4)cc(OC)c1O`, the TGI in the assay with SNB-19 CNS, with SK-MEL-2 melanoma, in the assay on KM12 colon, with SK-OV-3 ovarian, with RPMI-8226 leukemia and in the assay on NCI-H460 lung was over 100 µM in each case. Further, the TGI in the assay with T-47D breast and in the assay with OVCAR-8 ovarian was over 100 µM each time.
Consider `COc1ccc(N=NC(=Nc2ccc(F)cc2)c2ccc(N(CCC#N)CCC#N)cc2)cc1`, for which the TGI in the assay with SNB-19 CNS was over 100 µM; in the assay on KM12 colon, 44.9 µM; in the assay with SK-OV-3 ovarian, over 100 µM; in the assay on RPMI-8226 leukemia, over 100 µM; in the assay with UO-31 renal it was over 100 µM; with NCI-H460 lung, 52 µM. Further, the TGI with NCI-H226 lung, in the assay with T-47D breast and with OVCAR-8 ovarian was over 100 µM in each case.
As to `O=C(O)CSC(NC(=O)C(C(F)(F)F)C(F)(F)F)(C(F)(F)F)C(F)(F)F`, the TGI in the assay with SNB-19 CNS, with SK-MEL-2 melanoma, with SK-OV-3 ovarian, with RPMI-8226 leukemia, in the assay on UO-31 renal and with T-47D breast was over 100 µM each time. Moreover, the TGI in the assay with OVCAR-8 ovarian turned out to be 83.3 µM.
